{
  "source": "patent US20130136752A1",
  "about": "“Ophthalmic Formulations” (OXIGENE, INC., priority 2010, published 2013)",
  "origin": "cited, not measured here",
  "key": {"[1]": {"tested_on": "choroidal neovascularization (CNV)", "conditions": "rho/VEGF mice, P7 to P21"}, "[2]": {"tested_on": "vessels with anomalous structure"}},
  "data": [
    {"compound": "COc1ccc(/C=C\\c2cc(OC)c(OC)c(OC)c2)cc1OP(=O)(O)O", "note": "[CA4P, combretastatin A4 phosphate]", "values": [
      {"measurement": "neovascular lesions at P21", "setting": "[1]; 2.2 mg/kg daily IP", "value": "numerous neovascular lesions"},
      {"measurement": "number of neovascular lesions and total area of neovascularization per retina versus vehicle", "setting": "[1]; 4.0 mg/kg daily IP", "value": "significant reduction"},
      {"measurement": "systemic dose levels disrupting aberrant vessels", "setting": "[2]; aberrant vessels induced by overexpression of VEGF or by exposure to elevated oxygen", "value": "3 to 4", "unit": "mg/kg"},
      {"measurement": "systemic dose level required for normal immature vessels", "setting": "[2]; normal immature vessels induced by burn injury", "value": 75, "unit": "mg/kg"}
    ]}
  ]
}
